Reference: ChEMBL document CHEMBL1743341, “Cytochrome p450 enzymes mechanism based inhibitors: common sub-structures and reactivity” (Curr Drug Metab, 2005)
Blank lines part the entries; values can stand above or below the compound they belong to.

Assays:
Cytochrome P450 3A4 [1] = molecular target: T1, Cytochrome P450 3A4 (Homo sapiens, UniProt P08684); experiment: Mechanism based inhibition of human cytochrome P450 3A4 measured by transformation of triazolam into its alpha-hydroxy and 4-hydroxy metabolites; format: ADME
CYP3A4 = CYP3A4 (Homo sapiens, UniProt P08684); experiment: (§1) Mechanism based inhibition of human cytochrome P450 3A4 measured by testosterone hydroxylation; format: ADME; details: human, probe testosterone (hydroxylation)
Cytochrome P450 3A4 [2] = molecular target: T1, Cytochrome P450 3A4; experiment: as §1; format: ADME
Cytochrome P450 3A5 [3] = molecular target: T2, Cytochrome P450 3A5 (Homo sapiens, UniProt P20815); experiment: (§2) Mechanism based inhibition of human cytochrome P450 3A5 measured by testosterone hydroxylation; format: ADME
CYP3A5 [4] = molecular target: T3, CYP3A5 (Homo sapiens, UniProt P20815); experiment: as §2; format: ADME; details: human, probe testosterone (hydroxylation)
CYP2D6 = CYP2D6 (Homo sapiens, UniProt P10635); experiment: (§3) Mechanism based inhibition of human cytochrome P450 2D6 measured by dextromethorphan O-demethylation; format: ADME; details: human, probe dextromethorphan
Cytochrome P450 2D6 [5] = molecular target: T4, Cytochrome P450 2D6 (Homo sapiens, UniProt P10635); experiment: as §3; format: ADME
Cytochrome P450 2D6 [6] = molecular target: T4, Cytochrome P450 2D6; experiment: Mechanism based inhibition of human cytochrome P450 2D6, partition ratio; format: ADME
Cytochrome P450 2B6 [7] = molecular target: T5, Cytochrome P450 2B6 (Homo sapiens, UniProt P20813); experiment: Mechanism based inhibition of human cytochrome P450 2B6, partition ratio; format: ADME
T5 sequence (P20813 whole entry): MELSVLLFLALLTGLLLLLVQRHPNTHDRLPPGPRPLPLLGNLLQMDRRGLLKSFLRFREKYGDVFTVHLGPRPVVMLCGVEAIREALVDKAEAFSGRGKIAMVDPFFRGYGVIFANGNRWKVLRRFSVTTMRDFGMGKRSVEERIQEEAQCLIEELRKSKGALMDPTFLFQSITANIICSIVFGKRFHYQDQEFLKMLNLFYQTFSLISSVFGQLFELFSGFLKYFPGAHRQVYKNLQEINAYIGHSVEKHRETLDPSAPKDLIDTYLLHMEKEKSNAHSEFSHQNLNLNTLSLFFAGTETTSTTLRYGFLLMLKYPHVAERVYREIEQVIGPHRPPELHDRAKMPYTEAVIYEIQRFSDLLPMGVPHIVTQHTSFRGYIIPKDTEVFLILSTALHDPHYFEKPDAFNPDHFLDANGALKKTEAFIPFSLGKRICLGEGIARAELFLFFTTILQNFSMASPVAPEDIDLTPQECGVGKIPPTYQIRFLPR

Cytochrome P450 2C9 [8] = molecular target: T6, Cytochrome P450 2C9 (Homo sapiens, UniProt P11712); experiment: (§4) Mechanism based inhibition of human cytochrome P450 2C9; format: ADME
Cytochrome P450 2B6 [9] = molecular target: T5, Cytochrome P450 2B6; experiment: (§5) Mechanism based inhibition of human cytochrome P450 2B6; format: ADME
CYP2B6 = molecular target: T7, CYP2B6 (Homo sapiens, UniProt P20813); experiment: as §5; format: ADME; details: human
T7 sequence (P20813 whole entry): T5 sequence (P20813 whole entry)

Cytochrome P450 2B1 [10] = molecular target: T8, Cytochrome P450 2B1 (Rattus norvegicus, UniProt P00176); experiment: (§6) Mechanism based inhibition of rat cytochrome P450 2B1; format: ADME
T8 sequence (P00176 whole entry): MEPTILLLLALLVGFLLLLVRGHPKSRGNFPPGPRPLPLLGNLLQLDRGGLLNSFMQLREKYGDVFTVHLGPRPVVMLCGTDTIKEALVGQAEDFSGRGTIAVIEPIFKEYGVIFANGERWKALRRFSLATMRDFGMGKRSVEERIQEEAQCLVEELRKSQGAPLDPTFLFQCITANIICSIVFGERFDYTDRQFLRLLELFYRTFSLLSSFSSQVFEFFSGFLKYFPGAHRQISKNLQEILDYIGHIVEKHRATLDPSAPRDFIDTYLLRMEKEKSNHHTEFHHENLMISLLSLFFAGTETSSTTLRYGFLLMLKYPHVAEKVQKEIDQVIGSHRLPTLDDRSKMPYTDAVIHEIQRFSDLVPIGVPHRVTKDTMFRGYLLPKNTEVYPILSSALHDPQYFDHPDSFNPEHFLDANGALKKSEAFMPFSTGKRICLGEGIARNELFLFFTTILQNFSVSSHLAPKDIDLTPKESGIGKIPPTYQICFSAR

CYP2B1 = molecular target: T9, CYP2B1 (Rattus norvegicus, UniProt P00176); experiment: as §6; format: ADME; details: rat
T9 sequence (P00176 whole entry): T8 sequence (P00176 whole entry)

Cytochrome P450 2B1 [11] = molecular target: T8, Cytochrome P450 2B1; experiment: Mechanism based inhibition of rat cytochrome P450 2B1, partition ratio; format: ADME
Cytochrome P450 2B1 [12] = molecular target: T8, Cytochrome P450 2B1; experiment: Mechanism based inhibition of rat cytochrome P450 2B1 measured by 7-ethoxyresorufin O-deethylation (EROD); format: ADME
Cytochrome P450 3A4 [13] = molecular target: T1, Cytochrome P450 3A4; experiment: Mechanism based inhibition of human cytochrome P450 3A4 measured by midazolam hydroxylase activity; format: ADME
Cytochrome P450 2C9 [14] = molecular target: T6, Cytochrome P450 2C9; experiment: Mechanism based inhibition of human cytochrome P450 2C9, partition ratio; format: ADME
CYP2C9 = CYP2C9 (Homo sapiens, UniProt P11712); experiment: as §4; format: ADME; details: human
Cytochrome P450 3A6 [15] = molecular target: T10, Cytochrome P450 3A6 (Oryctolagus cuniculus, UniProt P11707); experiment: Mechanism based inhibition of rabbit cytochrome P450 3A6, partition ratio; format: ADME
Cytochrome P450 3A6 [16] = molecular target: T10, Cytochrome P450 3A6; experiment: Mechanism based inhibition of rabbit cytochrome P450 3A6 measured by testosterone and progesterone 6-beta hydroxylation; format: ADME
Cytochrome P450 3A4 [17] = molecular target: T1, Cytochrome P450 3A4; experiment: Mechanism based inhibition of human cytochrome P450 3A4 measured by testosterone 6-beta hydroxylation; format: ADME
Cytochrome P450 2E1 = Cytochrome P450 2E1 (Homo sapiens, UniProt P05181); experiment: (§7) Mechanism based inhibition of human cytochrome P450 2E1 measured in vivo; format: ADME, organism-based
CYP2E1 = CYP2E1 (Homo sapiens, UniProt P05181); experiment: as §7; format: ADME, organism-based; details: human, in vivo
CYP2B4 = molecular target: T11, CYP2B4 (Oryctolagus cuniculus, UniProt P00178); experiment: (§8) Mechanism based inhibition of rabbit cytochrome P450 2B4; format: ADME; details: rabbit
T11 sequence (P00178 whole entry): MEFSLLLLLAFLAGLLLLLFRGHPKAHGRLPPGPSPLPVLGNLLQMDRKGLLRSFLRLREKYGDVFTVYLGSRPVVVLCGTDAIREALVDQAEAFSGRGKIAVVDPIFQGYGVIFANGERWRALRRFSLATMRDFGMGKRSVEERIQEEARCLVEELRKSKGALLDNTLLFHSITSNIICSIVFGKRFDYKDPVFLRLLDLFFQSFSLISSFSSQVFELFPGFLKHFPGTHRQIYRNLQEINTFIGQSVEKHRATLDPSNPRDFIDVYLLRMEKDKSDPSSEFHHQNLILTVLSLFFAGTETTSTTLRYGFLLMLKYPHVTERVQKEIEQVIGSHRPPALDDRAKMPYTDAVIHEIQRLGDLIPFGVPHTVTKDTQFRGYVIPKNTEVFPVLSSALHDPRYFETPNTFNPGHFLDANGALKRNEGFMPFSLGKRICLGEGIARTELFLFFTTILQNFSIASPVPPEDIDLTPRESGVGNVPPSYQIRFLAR

Cytochrome P450 2B4 = molecular target: T12, Cytochrome P450 2B4 (Oryctolagus cuniculus, UniProt P00178); experiment: as §8; format: ADME
T12 sequence (P00178 whole entry): T11 sequence (P00178 whole entry)

Cytochrome P450 3A4 [18] = molecular target: T1, Cytochrome P450 3A4; experiment: Mechanism based inhibition of human cytochrome P450 3A4 measured by testosterone 6-beta hydroxylation and erythromycin N-demethylation; format: ADME
Cytochrome P450 3A5 [19] = molecular target: T2, Cytochrome P450 3A5; experiment: Mechanism based inhibition of human cytochrome P450 3A5, partition ratio; format: ADME
Cytochrome P450 3A5 [20] = molecular target: T2, Cytochrome P450 3A5; experiment: (§9) Mechanism based inhibition of human cytochrome P450 3A5; format: ADME
CYP3A5 [21] = molecular target: T3, CYP3A5; experiment: as §9; format: ADME; details: human

T2 sequence (P20815 whole entry): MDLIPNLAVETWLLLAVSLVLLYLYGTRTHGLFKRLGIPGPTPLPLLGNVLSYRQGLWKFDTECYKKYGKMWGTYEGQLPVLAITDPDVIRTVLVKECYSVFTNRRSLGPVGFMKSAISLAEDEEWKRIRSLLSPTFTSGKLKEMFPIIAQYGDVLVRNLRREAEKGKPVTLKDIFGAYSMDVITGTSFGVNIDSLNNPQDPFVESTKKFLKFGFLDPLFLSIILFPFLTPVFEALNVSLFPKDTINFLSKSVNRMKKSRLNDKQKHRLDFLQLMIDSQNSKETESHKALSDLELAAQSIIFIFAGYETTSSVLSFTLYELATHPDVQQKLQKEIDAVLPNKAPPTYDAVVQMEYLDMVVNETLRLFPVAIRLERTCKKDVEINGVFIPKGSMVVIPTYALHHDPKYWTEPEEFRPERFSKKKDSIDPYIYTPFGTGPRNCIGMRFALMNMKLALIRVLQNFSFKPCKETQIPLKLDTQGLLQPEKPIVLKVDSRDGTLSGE
T1 sequence (P08684 whole entry): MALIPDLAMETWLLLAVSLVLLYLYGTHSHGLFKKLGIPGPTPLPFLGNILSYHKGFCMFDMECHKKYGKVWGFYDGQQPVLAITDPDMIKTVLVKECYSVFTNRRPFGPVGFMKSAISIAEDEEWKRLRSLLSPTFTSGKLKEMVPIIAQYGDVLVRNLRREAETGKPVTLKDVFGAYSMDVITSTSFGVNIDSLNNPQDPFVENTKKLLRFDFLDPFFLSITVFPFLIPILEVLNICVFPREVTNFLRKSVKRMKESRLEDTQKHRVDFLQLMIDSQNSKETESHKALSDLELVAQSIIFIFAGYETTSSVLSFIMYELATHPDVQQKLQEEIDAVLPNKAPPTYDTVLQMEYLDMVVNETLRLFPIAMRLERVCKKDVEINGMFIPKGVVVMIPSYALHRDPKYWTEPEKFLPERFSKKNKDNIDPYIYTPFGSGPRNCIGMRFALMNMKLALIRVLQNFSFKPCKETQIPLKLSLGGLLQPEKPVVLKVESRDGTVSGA
T6 sequence (P11712 whole entry): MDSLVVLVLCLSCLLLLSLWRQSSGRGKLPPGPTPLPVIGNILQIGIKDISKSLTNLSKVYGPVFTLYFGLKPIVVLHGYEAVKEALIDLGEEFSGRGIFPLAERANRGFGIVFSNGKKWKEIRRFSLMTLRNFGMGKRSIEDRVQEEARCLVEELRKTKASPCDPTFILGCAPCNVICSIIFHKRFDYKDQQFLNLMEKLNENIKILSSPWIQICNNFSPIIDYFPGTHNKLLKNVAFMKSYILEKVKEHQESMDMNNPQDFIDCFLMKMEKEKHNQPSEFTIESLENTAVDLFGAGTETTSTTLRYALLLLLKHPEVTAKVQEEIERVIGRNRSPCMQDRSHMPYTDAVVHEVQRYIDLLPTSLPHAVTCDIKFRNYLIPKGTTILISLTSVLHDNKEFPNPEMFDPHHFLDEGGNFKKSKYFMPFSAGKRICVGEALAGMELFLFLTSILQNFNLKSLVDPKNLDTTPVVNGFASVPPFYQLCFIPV
T3 sequence (P20815 whole entry): as the sequence (P20815 whole entry) above
T4 sequence (P10635 whole entry): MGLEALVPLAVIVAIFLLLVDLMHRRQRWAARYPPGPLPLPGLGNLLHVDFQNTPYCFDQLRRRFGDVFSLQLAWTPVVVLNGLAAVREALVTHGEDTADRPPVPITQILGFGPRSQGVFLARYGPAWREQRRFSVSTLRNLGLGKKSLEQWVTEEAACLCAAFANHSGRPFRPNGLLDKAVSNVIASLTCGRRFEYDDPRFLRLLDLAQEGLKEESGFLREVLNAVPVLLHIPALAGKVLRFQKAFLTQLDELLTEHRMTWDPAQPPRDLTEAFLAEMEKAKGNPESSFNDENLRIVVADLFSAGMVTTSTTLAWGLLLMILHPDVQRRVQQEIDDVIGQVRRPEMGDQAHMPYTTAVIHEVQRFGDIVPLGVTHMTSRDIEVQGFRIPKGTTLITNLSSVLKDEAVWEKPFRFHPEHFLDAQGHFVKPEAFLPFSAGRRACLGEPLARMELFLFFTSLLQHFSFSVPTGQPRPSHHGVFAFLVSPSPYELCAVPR
T10 sequence (P11707 whole entry): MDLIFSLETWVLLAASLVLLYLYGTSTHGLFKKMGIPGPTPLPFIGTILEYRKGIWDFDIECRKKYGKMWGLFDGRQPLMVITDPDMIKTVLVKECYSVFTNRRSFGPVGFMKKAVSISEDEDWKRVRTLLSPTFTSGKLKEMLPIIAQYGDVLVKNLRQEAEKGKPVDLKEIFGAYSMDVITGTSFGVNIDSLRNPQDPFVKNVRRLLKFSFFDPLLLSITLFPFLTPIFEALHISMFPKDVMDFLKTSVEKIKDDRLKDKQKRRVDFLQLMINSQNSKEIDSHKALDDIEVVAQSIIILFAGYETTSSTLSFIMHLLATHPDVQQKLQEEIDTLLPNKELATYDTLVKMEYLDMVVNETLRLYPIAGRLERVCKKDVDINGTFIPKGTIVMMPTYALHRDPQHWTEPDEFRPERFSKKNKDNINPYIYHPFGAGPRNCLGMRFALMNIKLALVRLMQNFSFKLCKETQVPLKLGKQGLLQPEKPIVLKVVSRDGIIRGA
Chain of CYP2D6 (P10635 whole entry): as the sequence (P10635 whole entry) above
Chain of Cytochrome P450 2E1 (P05181 whole entry): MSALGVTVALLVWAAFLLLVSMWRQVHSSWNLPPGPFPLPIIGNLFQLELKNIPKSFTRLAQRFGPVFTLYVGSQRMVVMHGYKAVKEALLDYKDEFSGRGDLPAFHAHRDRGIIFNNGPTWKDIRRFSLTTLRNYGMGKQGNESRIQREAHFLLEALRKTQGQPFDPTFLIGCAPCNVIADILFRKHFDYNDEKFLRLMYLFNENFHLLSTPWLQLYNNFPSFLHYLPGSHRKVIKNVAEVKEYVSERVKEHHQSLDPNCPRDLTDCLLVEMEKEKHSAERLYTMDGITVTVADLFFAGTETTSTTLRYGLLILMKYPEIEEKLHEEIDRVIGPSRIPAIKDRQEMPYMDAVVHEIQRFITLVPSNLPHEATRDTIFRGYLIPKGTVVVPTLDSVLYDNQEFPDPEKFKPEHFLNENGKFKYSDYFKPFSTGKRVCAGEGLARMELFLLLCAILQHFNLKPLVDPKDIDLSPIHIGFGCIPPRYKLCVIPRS
Chain of CYP2E1 (P05181 whole entry): as above
Chain of CYP3A4 (P08684 whole entry): as the sequence (P08684 whole entry) above
Chain of CYP2C9 (P11712 whole entry): as the sequence (P11712 whole entry) above

kinact (CYP3A4): 0.0122 s⁻¹
Ki (Cytochrome P450 3A4 [2]): 0.26 µM
Ki (Cytochrome P450 3A5 [3]): 0.2 µM
kinact (CYP3A5 [4]): 0.00583 s⁻¹
SMILES: CC(C)CN(C[C@@H](O)[C@H](Cc1ccccc1)NC(=O)O[C@H]1CCOC1)S(=O)(=O)c1ccc(N)cc1
mechanism based inhibition (Cytochrome P450 3A4 [1]): Cytochrome P450 mechanistic inhibitor: PMID 10952482

kinact (CYP2D6): 0.0015 s⁻¹
Ki (Cytochrome P450 2D6 [5]): 5.5 µM
Partition ratio (Cytochrome P450 2D6 [6]): 99
SMILES: CCc1nc(C)c(CN2CCN(c3cc(C(F)(F)F)ccn3)CC2)[nH]1

SMILES: CC(C)(c1ccccc1)N1CCCCC1
Partition ratio (Cytochrome P450 2B6 [7]): 15
mechanism based inhibition (Cytochrome P450 2C9 [8]): Cytochrome P450 mechanistic inhibitor: PMID 10901701
Ki (Cytochrome P450 2B6 [9]): 1.2 µM
kinact (CYP2B6): 0.00117 s⁻¹
Ki (Cytochrome P450 2B1 [10]): 12 µM
kinact (CYP2B1): 0.005 s⁻¹
Partition ratio (Cytochrome P450 2B1 [11]): 31

SMILES: C#CCCCc1ccccc1
mechanism based inhibition (Cytochrome P450 2B1 [12]): Cytochrome P450 mechanistic inhibitor: PMID 9760279

SMILES: CNCCN1C(=O)[C@H](OC(C)=O)[C@H](c2ccc(OC)cc2)Sc2ccccc21
mechanism based inhibition (Cytochrome P450 3A4 [13]): Cytochrome P450 mechanistic inhibitor: PMID 10454485

Partition ratio (Cytochrome P450 2C9 [14]): 101
Ki (Cytochrome P450 2C9 [8]): 3.7 µM
kinact (CYP2C9): 0.00152 s⁻¹
SMILES: CC(C(=O)O)c1ccc(C(=O)c2cccs2)cc1 (racemic) [SUPROFEN]

Partition ratio (Cytochrome P450 3A6 [15]): 21
Ki (Cytochrome P450 3A6 [16]): 80.1 µM
SMILES: O=c1cc(-c2ccccc2)oc2c1ccc1ccccc12 [ALPHA-NAPHTHOFLAVONE]
mechanism based inhibition (Cytochrome P450 3A4 [17]): Cytochrome P450 mechanistic inhibitor: PMID 11640917

Ki (Cytochrome P450 2E1): 40 µM
kinact (CYP2E1): 0.00133 s⁻¹
Partition ratio (Cytochrome P450 2B6 [7]): 2
kinact (CYP2B4): 0.00113 s⁻¹
Ki (Cytochrome P450 2B4): 2.8 µM
Ki (Cytochrome P450 2B6 [9]): 5.2 µM
kinact (CYP2B6): 0.00145 s⁻¹
Ki (Cytochrome P450 2B1 [10]): 2.4 µM
kinact (CYP2B1): 0.000817 s⁻¹
Ki (Cytochrome P450 3A4 [18]): 7.7 µM
Partition ratio (Cytochrome P450 3A5 [19]): 20
Ki (Cytochrome P450 3A5 [20]): 20 µM
kinact (CYP3A5 [21]): 0.00075 s⁻¹
SMILES: CC(C)=CCC/C(C)=C/COc1c2ccoc2cc2oc(=O)ccc12 [BERGAMOTTIN]
mechanism based inhibition (Cytochrome P450 3A4 [17]): Cytochrome P450 mechanistic inhibitor: PMID 10859150
